In ChEMBL document CHEMBL4145521, “Regioselective synthesis of 3,4-diaryl-5-unsubstituted isoxazoles, analogues of natural cytostatic combretastatin A4” (Eur J Med Chem, 2018):

Legend:
Assay type in all cases: functional
CCRF-CEM [1] = assay: Cytotoxicity against human CCRF-CEM cells assessed as cell growth at 10 uM incubated for 48 hrs by sulforhodamine B assay relative to control; settings: read-out: Activity
PC-3 [2] = assay: Cytotoxicity against human PC3 cells assessed as cell growth at 0.1 uM incubated for 48 hrs by sulforhodamine B assay relative to control; settings: PC-3, 48 h, read-out: Activity
NCI-H460 [3] = assay: Cytotoxicity against human NCI-H460 cells assessed as cell growth at 10 uM incubated for 48 hrs by sulforhodamine B assay relative to control; settings: NCI-H460, 48 h, read-out: Activity
OVCAR-5 = assay: Cytotoxicity against human OVCAR5 cells assessed as cell growth at 10 uM incubated for 48 hrs by sulforhodamine B assay relative to control; settings: OVCAR-5, 48 h, read-out: Activity
M14 [4] = assay: Cytotoxicity against human M14 cells assessed as cell growth at 0.1 uM incubated for 48 hrs by sulforhodamine B assay relative to control; settings: M14, 48 h, read-out: Activity
NCI-H23 = assay: Cytotoxicity against human NCI-H23 cells incubated for 48 hrs by sulforhodamine B assay; settings: NCI-H23, 48 h
RXF 393 = assay: Cytotoxicity against human RXF393 cells incubated for 48 hrs by sulforhodamine B assay; settings: RXF 393, 48 h
A498 = assay: Cytotoxicity against human A498 cells assessed as cell growth at 10 uM incubated for 48 hrs by sulforhodamine B assay relative to control; settings: A498, 48 h, read-out: Activity
CCRF-CEM [5] = assay: Cytotoxicity against human CCRF-CEM cells assessed as cell growth at 0.1 uM incubated for 48 hrs by sulforhodamine B assay relative to control; settings: read-out: Activity
T47D = assay: Cytotoxicity against human T47D cells assessed as cell growth at 10 uM incubated for 48 hrs by sulforhodamine B assay relative to control; settings: read-out: Activity
PC-3 [6] = assay: Cytotoxicity against human PC3 cells assessed as cell growth at 100 uM incubated for 48 hrs by sulforhodamine B assay relative to control; settings: PC-3, 48 h, read-out: Activity
SF-295 = assay: Cytotoxicity against human SF295 cells assessed as cell growth at 0.01 uM incubated for 48 hrs by sulforhodamine B assay relative to control; settings: SF-295, 48 h, read-out: Activity
KM12 = assay: Cytotoxicity against human KM12 cells incubated for 48 hrs by sulforhodamine B assay; settings: KM12, 48 h
COLO 205 = assay: Cytotoxicity against human COLO205 cells assessed as cell growth at 10 uM incubated for 48 hrs by sulforhodamine B assay relative to control; settings: COLO 205, 48 h, read-out: Activity
SK-OV-3 = assay: Cytotoxicity against human SKOV3 cells incubated for 48 hrs by sulforhodamine B assay; settings: SK-OV-3, 48 h
HCT-15 = assay: Cytotoxicity against human HCT15 cells assessed as cell growth at 10 uM incubated for 48 hrs by sulforhodamine B assay relative to control; settings: HCT-15, 48 h, read-out: Activity
U-251 [7] = assay: Cytotoxicity against human U251 cells assessed as cell growth at 1 uM incubated for 48 hrs by sulforhodamine B assay relative to control; settings: U-251, 48 h, read-out: Activity
SNB-75 = assay: Cytotoxicity against human SNB75 cells assessed as cell growth at 100 uM incubated for 48 hrs by sulforhodamine B assay relative to control; settings: SNB-75, 48 h, read-out: Activity
NCI-H460 [8] = assay: Cytotoxicity against human NCI-H460 cells assessed as cell growth at 1 uM incubated for 48 hrs by sulforhodamine B assay relative to control; settings: NCI-H460, 48 h, read-out: Activity
SK-MEL-28 = assay: Cytotoxicity against human SK-MEL-28 cells assessed as cell growth at 0.01 uM incubated for 48 hrs by sulforhodamine B assay relative to control; settings: SK-MEL-28, 48 h, read-out: Activity
HOP-92 = assay: Cytotoxicity against human HOP92 cells incubated for 48 hrs by sulforhodamine B assay; settings: HOP-92, 48 h
ACHN = assay: Cytotoxicity against human ACHN cells incubated for 48 hrs by sulforhodamine B assay
UO-31 = assay: Cytotoxicity against human UO31 cells assessed as cell growth at 1 uM incubated for 48 hrs by sulforhodamine B assay relative to control; settings: UO-31, 48 h, read-out: Activity
786-0 = assay: Cytotoxicity against human 786-0 cells assessed as cell growth at 100 uM incubated for 48 hrs by sulforhodamine B assay relative to control; settings: 786-0, 48 h, read-out: Activity
SF-268 = assay: Cytotoxicity against human SF268 cells assessed as cell growth at 0.01 uM incubated for 48 hrs by sulforhodamine B assay relative to control; settings: SF-268, 48 h, read-out: Activity
U-251 [9] = assay: Cytotoxicity against human U251 cells assessed as cell growth at 10 uM incubated for 48 hrs by sulforhodamine B assay relative to control; settings: U-251, 48 h, read-out: Activity
NCI-H226 = assay: Cytotoxicity against human NCI-H226 cells assessed as cell growth at 0.1 uM incubated for 48 hrs by sulforhodamine B assay relative to control; settings: NCI-H226, 48 h, read-out: Activity
NCI-H522 = assay: Cytotoxicity against human NCI-H522 cells assessed as cell growth at 100 uM incubated for 48 hrs by sulforhodamine B assay relative to control; settings: NCI-H522, 48 h, read-out: Activity
M14 [10] = assay: Cytotoxicity against human M14 cells assessed as cell growth at 0.01 uM incubated for 48 hrs by sulforhodamine B assay relative to control; settings: M14, 48 h, read-out: Activity
DU-145 = assay: Cytotoxicity against human DU145 cells assessed as cell growth at 100 uM incubated for 48 hrs by sulforhodamine B assay relative to control; settings: DU-145, 48 h, read-out: Activity
SNB-19 = assay: Cytotoxicity against human SNB19 cells assessed as cell growth at 100 uM incubated for 48 hrs by sulforhodamine B assay relative to control; settings: SNB-19, 48 h, read-out: Activity
[11] = read-out: LC50 (the source's name)
[12] = read-out: pLC50 (the source's name) (converted)

**Q.** For COc1ccc(-c2nocc2-c2cc(OC)c(OC)c(OC)c2)cc1, which growth at 10 µM (CCRF-CEM [1]) is on record?
**A.** 24%

**Q.** What about the growth at 0.1 µM (PC-3 [2]) of the same compound?
**A.** 40%

**Q.** And the growth at 10 µM (NCI-H460 [3])?
**A.** 4%

**Q.** What about the growth at 10 µM (OVCAR-5) of the same compound?
**A.** 39%

**Q.** What about the growth at 0.1 µM (M14 [4]) of the same compound?
**A.** 41%

**Q.** And the GI50 (NCI-H23; read-out: GI50)?
**A.** 0.283 µM

**Q.** And the CC50 (NCI-H23; [11])?
**A.** > 100 µM

**Q.** What about the TGI (NCI-H23; read-out: TGI) of the same compound?
**A.** 74.9 µM

**Q.** And the GI50 (NCI-H23; read-out: pGI50 (converted))?
**A.** 0.282 µM

**Q.** And the CC50 (NCI-H23; [12])?
**A.** > 100 µM

**Q.** And the TGI (NCI-H23; read-out: pTGI (converted))?
**A.** 74.1 µM

**Q.** And the GI50 (RXF 393; read-out: GI50)?
**A.** 0.243 µM

**Q.** What about the CC50 (RXF 393; [11]) of the same compound?
**A.** > 100 µM

**Q.** And the GI50 (RXF 393; read-out: pGI50 (converted))?
**A.** 0.245 µM

**Q.** What about the CC50 (RXF 393; [12]) of the same compound?
**A.** > 100 µM

**Q.** And the growth at 10 µM (A498)?
**A.** -13%

**Q.** And the growth at 0.1 µM (CCRF-CEM [5])?
**A.** 90%

**Q.** And the growth at 10 µM (T47D)?
**A.** 52%

**Q.** What about the growth at 100 µM (PC-3 [6]) of the same compound?
**A.** -13%

**Q.** What about the growth at 0.01 µM (SF-295) of the same compound?
**A.** 84%

**Q.** What about the GI50 (KM12; read-out: GI50) of the same compound?
**A.** 0.0433 µM

**Q.** And the CC50 (KM12; [11])?
**A.** > 100 µM

**Q.** And the TGI (KM12; read-out: TGI)?
**A.** 13.1 µM

**Q.** And the GI50 (KM12; read-out: pGI50 (converted))?
**A.** 0.0437 µM

**Q.** What about the CC50 (KM12; [12]) of the same compound?
**A.** > 100 µM

**Q.** And the TGI (KM12; read-out: pTGI (converted))?
**A.** 13.2 µM

**Q.** And the growth at 10 µM (COLO 205)?
**A.** -27%

**Q.** And the GI50 (SK-OV-3; read-out: GI50)?
**A.** 0.296 µM

**Q.** What about the LC50 (SK-OV-3; read-out: LC50) of the same compound?
**A.** > 100 µM

**Q.** And the TGI (SK-OV-3; read-out: TGI)?
**A.** > 100 µM

**Q.** And the GI50 (SK-OV-3; read-out: pGI50 (converted))?
**A.** 0.295 µM

**Q.** What about the LC50 (SK-OV-3; read-out: pLC50 (converted)) of the same compound?
**A.** > 100 µM

**Q.** What about the TGI (SK-OV-3; read-out: pTGI) of the same compound?
**A.** > 100 µM

**Q.** What about the growth at 10 µM (HCT-15) of the same compound?
**A.** 11%

**Q.** And the growth at 1 µM (U-251 [7])?
**A.** 22%

**Q.** And the growth at 100 µM (SNB-75)?
**A.** 9%

**Q.** What about the growth at 1 µM (NCI-H460 [8]) of the same compound?
**A.** 11%

**Q.** And the growth at 0.01 µM (SK-MEL-28)?
**A.** 94%

**Q.** And the GI50 (HOP-92; read-out: GI50)?
**A.** 0.678 µM

**Q.** What about the LC50 (50% lethal concentration) (HOP-92; read-out: LC50) of the same compound?
**A.** > 100 µM

**Q.** And the TGI (HOP-92; read-out: TGI)?
**A.** 50.2 µM

**Q.** What about the GI50 (HOP-92; read-out: pGI50 (converted)) of the same compound?
**A.** 0.676 µM

**Q.** And the LC50 (50% lethal concentration) (HOP-92; read-out: pLC50 (converted))?
**A.** > 100 µM

**Q.** And the TGI (HOP-92; read-out: pTGI (converted))?
**A.** 50.1 µM

**Q.** What about the GI50 (ACHN; read-out: GI50) of the same compound?
**A.** 1.19 µM

**Q.** What about the LC50 (concentration killing 50% of cells) (ACHN; read-out: LC50) of the same compound?
**A.** > 100 µM

**Q.** What about the TGI (ACHN; read-out: TGI) of the same compound?
**A.** 49.4 µM

**Q.** What about the GI50 (ACHN; read-out: pGI50 (converted)) of the same compound?
**A.** 1.2 µM

**Q.** What about the LC50 (concentration killing 50% of cells) (ACHN; read-out: pLC50 (converted)) of the same compound?
**A.** > 100 µM

**Q.** And the TGI (ACHN; read-out: pTGI (converted))?
**A.** 49 µM

**Q.** And the growth at 1 µM (UO-31)?
**A.** 43%

**Q.** And the growth at 100 µM (786-0)?
**A.** -17%

**Q.** What about the growth at 0.01 µM (SF-268) of the same compound?
**A.** 95%

**Q.** What about the growth at 10 µM (U-251 [9]) of the same compound?
**A.** 19%

**Q.** And the growth at 0.1 µM (NCI-H226)?
**A.** 90%

**Q.** What about the growth at 100 µM (NCI-H522) of the same compound?
**A.** -48%

**Q.** What about the growth at 0.01 µM (M14 [10]) of the same compound?
**A.** 90%

**Q.** What about the growth at 100 µM (DU-145) of the same compound?
**A.** 7%

**Q.** What about the growth at 100 µM (SNB-19) of the same compound?
**A.** 8%
